Calls of active or inactive are those of the source. No cut-off for these calls is given here.
Legend:
Jurkat [1] = test: Induction of ROS generation in human Jurkat cells assessed as living undamaged cells at 200 nM after 2 hrs by MitoSox Red/annexin V-CF488A staining based flow cytometric analysis (reference value: 95.44%); assay type: functional
Jurkat [2] = test: Induction of ROS generation in human Jurkat cells assessed as apoptotic cells with clear mitochondrial damages at 200 nM after 4 hrs by MitoSox Red/annexin V-CF488A staining based flow cytometric analysis (reference value: 0.39%); assay type: functional
Jurkat [3] = test: Induction of DNA damage in human Jurkat cells assessed as increase in H2Ax phosphorylation at 0.2 uM after 2 hrs by Alexa Fluor555 staining based flow cytometric analysis; assay type: functional, cell-based
Jurkat [4] = test: Induction of ROS generation in human Jurkat cells assessed as apoptotic cells at 200 nM after 4 hrs by MitoSox Red/annexin V-CF488A staining based flow cytometric analysis (reference value: 3.18%); assay type: functional
Jurkat [5] = test: Induction of ROS generation in human Jurkat cells assessed as mitochondria damaged cells at 200 nM after 4 hrs by MitoSox Red/annexin V-CF488A staining based flow cytometric analysis (reference value: 0%); assay type: functional
Jurkat [6] = test: Induction of DNA damage in human Jurkat cells assessed as increase in H2Ax phosphorylation at 2 uM after 2 hrs by Alexa Fluor555 staining based flow cytometric analysis; assay type: functional, cell-based
Jurkat [7] = test: Induction of apoptosis in human Jurkat cells assessed as late apoptotic cells after 24 hrs by Annexin V/7-AAD staining.based flow cytometric analysis; assay type: functional, cell-based; settings: dose 50-400 nM
Jurkat [8] = test: Induction of apoptosis in human Jurkat cells assessed as early apoptotic cells at 200 nM after 24 hrs by Annexin V/7-AAD staining.based flow cytometric analysis relative to control; assay type: functional
Jurkat [9] = test: Induction of cell cycle arrest in human Jurkat cells assessed as accumulation at sub-G1 phase at 2 uM after 24 hrs by Guava Cell Cycle reagent based flow cytometric analysis relative to control; assay type: functional
Jurkat [10] = test: Induction of mitochondrial membrane potential loss in human Jurkat cells assessed as death cells at 200 nM after 4 hrs by MitoSense Red/7-AAD. flow cytometric analysis (reference value: 0.22%); assay type: functional
Jurkat [11] = test: Induction of mitochondrial membrane potential loss in human Jurkat cells assessed as alife cells at 200 nM after 4 hrs by MitoSense Red/7-AAD. flow cytometric analysis (reference value: 98.47%); assay type: functional
Jurkat [12] = test: Induction of mitochondrial membrane potential loss in human Jurkat cells assessed as stressed cells at 200 nM after 4 hrs by MitoSense Red/7-AAD. flow cytometric analysis (reference value: 1.12%); assay type: functional
Jurkat [13] = test: Induction of mitochondrial membrane potential loss in human Jurkat cells at 200 nM after 4 hrs by MitoSense Red/7-AAD. flow cytometric analysis; assay type: functional, cell-based

COc1cc([C@@H]2c3cc4c(cc3[C@@H](O[C@@H]3O[C@@H]5CO[C@@H](C)O[C@H]5[C@H](O)[C@H]3O)[C@H]3COC(=O)[C@H]23)OCO4)cc(OC)c1O [ETOPOSIDE]
Activity (Jurkat [1]): 0.48%
Activity (Jurkat [2]): 13.1%
Activity (Jurkat [3]): Active
Activity (Jurkat [4]): 86.42%
Activity (Jurkat [5]): 0%

C#C[C@H](O)CCCCCCCCCCC/C=C\CC/C=C\CCCCCCCCCCCCCCCC
Activity (Jurkat [6]): inactive
Activity (Jurkat [7]): Dose-dependent effect
Activity (Jurkat [8]): 78.6%
Activity (Jurkat [9]): 15.1%

CN[C@@H]1C[C@H]2O[C@@](C)([C@@H]1OC)n1c3ccccc3c3c4c(c5c6ccccc6n2c5c31)C(=O)NC4 [STAUROSPORINE]
Activity (Jurkat [10]): 15.87%
Activity (Jurkat [11]): 53.44%
Activity (Jurkat [12]): 30.37%
Activity (Jurkat [13]): Active

CC[C@@]1(O)C(=O)OCc2c1cc1n(c2=O)Cc2cc3ccccc3nc2-1 [CAMPTOTHECIN]
Activity (Jurkat [1]): 29.83%
Activity (Jurkat [2]): 1.92%
Activity (Jurkat [4]): 68.24%
Activity (Jurkat [5]): 0%

From ChEMBL document CHEMBL4673230, “Total Synthesis of Natural Lembehyne C and Investigation of Its Cytotoxic Properties” (J Nat Prod, 2020)
